This note sets out measurements from patent US6710081B1, “Erection insufficiency remedies” (priority 1999, dated 2004).

Each structure is given as a SMILES string.

One data set concerns corpus cavernosum penis. Nature of the data set: Intracavernosal pressure increasing activity. Conditions: for Intracavernosal pressure increase: anesthetized beagle, intracavernosal injection, maximum up to 4 minutes from administration. Format: in vivo, beagle. The text has this: Under anesthesia with thiopental, cannulae were indwelled in left cephalic vein (for infusion) and left femoral artery (for measuring blood pressure and heart rate) of a beagle. The epidermis was dissected from the top of penis to scrotum with an electrocautery to expose the albuguinea on the surface of the cavernous body. A cannula with a needle for measuring the inner pressure and administering a chemical was inserted into the cavernous body and (11α,15α,13E)-9-oxo-11,15-dihydroxy-16-(3-methoxy-methylphenyl)-17,18,19,20-tetranor-5-thiaprost-13-enoic acid methyl ester (methyl ester of the compound of formula (I-1) above, hereinafter abbreviated as methyl ester form) was administered in four kinds of dosage, i.e., 0.2, 2.0, 20, and 200 ng. As controls, 20 ng of PGE1 and physiological saline were used.
Through the cannula inserted into the corpus cavernosum penis, the chemical was injected in amounts of 100 μl and was followed by 300 μl saline injection. A difference between the maximum intra pressures up to 4 minutes from the administration and the intra pressure at the time of administration was taken as the value of intracavernosal pressure increase.

The next data set concerns rat. Conditions: in vivo, iv. Here is the method: It has been confirmed that the compounds of the present invention of formula (I) have sufficiently low toxicity and are sufficiently safe for use as pharmaceutical preparations. For example, the maximal tolerated dose of methyl ester of the compound of formula (I-1) was 30 mg/kg weight or more for rat intravenous administration.

For the molecule `COCc1cccc(C[C@H](O)/C=C/[C@H]2[C@H](O)CC(=O)[C@@H]2CCSCCCC(=O)OC)c1` [Methyl ester form, (11α,15α,13E)-9-oxo-11,15-dihydroxy-16-(3-methoxy-methylphenyl)-17,18,19,20-tetranor-5-thiaprost-13-enoic acid methyl ester], the Intracavernosal pressure increase in the data set on corpus cavernosum penis (dose 0.2 ng/100 μl) is recorded as 4.3 ± 1.9 mmHg; with corpus cavernosum penis (dose 2.0 ng/100 μl), 12.7 ± 8.7 mmHg; in the data set with corpus cavernosum penis (dose 20 ng/100 μl), 28.3 ± 12.3 mmHg; with corpus cavernosum penis (dose 200 ng/100 μl), 40.7 ± 16.6 mmHg. Moreover, in the data set with corpus cavernosum penis (beagle, 0.2 to 200 ng intracavernosal), the “Effect on intracavernosal pressure (in words)” value is on record as “increased the intracavernosal pressure dose-dependently”. The maximal tolerated dose in the data set on rat is reported as ≥ 30 mg/kg weight.

As to `CCCCC[C@H](O)/C=C/[C@H]1[C@H](O)CC(=O)[C@@H]1CCCCCCC(=O)O` [PGE1, prostaglandin E1, reference compound], the Intracavernosal pressure increase in the data set with corpus cavernosum penis (dose 20 ng/100 μl) is on record as 29.0 ± 12.5 mmHg.
